# Source: patent US7803377B2, “Anti-DLL4 antibodies and methods using same” (Genentech, Inc., priority 2006, dated 2010)
# Experiments:
# [1] = tested on: human ovarian cancer SK-OV-3 X1 cells; assay: Tumor model SK-OV-3X1; assay type: in vivo, mouse; conditions: 5 mg/kg, IP, twice weekly after establishment of the tumors
# Protocol: (§1) Tumor models. Beige nude female mice of 8- to 10-week-old were used. To obtain subcutaneous tumors, mice were injected with 0.1 ml cell suspension containing 50% matrigel (BD Bioscience) into the right posterior flank. 5×10^6 human colon cancer HM7 cells, 10×10^6 human colon carcinoma Colo205 cells, 10×10^6 human lung carcinoma Calu6 cells, 10×10^6 human lung carcinoma MV-522 cells, 10×10^6 mouse leukemia WEHI-3 cells, 10×10^6 mouse lymphoma EL4 cells, 10×10^6 human ovarian cancer SK-OV-3 X1 cells, 10×06 mouse lung cancer LL2 cells, 10×10^6 leukemia/lymphoma EL4 cells, or 10×10^6 non-small lung cancer H1299 cells were injected into each mouse. For human melanoma MDA-MB-435 model, mice were injected into the mammary fat pad with 0.1 ml cell (5×10^6) suspension containing 50% matrigel. […] For the following tumor models, each test mouse received a subcutaneous tumor fragment (1 mm^3) implanted in the right flank: non-small lung cancer SKMES-1, human breast cancer MX-1, human colorectal cancer SW620 and human adenocarcinoma LS174T. The tumor growth was quantitated by caliper measurements. Tumor volume (mm^3) was determined by measuring the length (l) and width (w) and calculating the volume (V=lw2/2). 10 to 15 animals were included in each group. Statistical comparison of treatment groups was performed using two-tailed Student's t-test. […]
# [2] = tested on: human colon carcinoma Colo205 cells; assay: Tumor model Colo205; assay type: in vivo, mouse
# Protocol: as §1
# EL4 mouse lymphoma tumor = assay: Tumor vascular labeling and immunohistochemistry (EL4 tumors); assay type: in vivo
# Protocol: Tumor vascular labeling and immunohistochemistry. Mice were anesthetized with Isoflurane. FITC-labeled Lycopersicon esculentum Lectin (150 μg in 150 μl of 0.9% NaCl; Vector Laboratories) was injected i.v. and allowed to circulate for 5 min before systemic perfusion. The vasculature was perfused transcardially with 1% PFA in PBS for 3 min. Tumors were removed and post fixed by immersion in the same fixative for 2 hr, followed by an incubation in 30% sucrose overnight for cryoprotection, then embedded in OCT. Sections (4 μm thickness) were stained with anti-mouse CD31 (1:50, BD Pharmingen), followed by Alexa 594 goat anti-rat IgG (1:800, Molecular Probes).
# In light of the tumor growth inhibition, we used the EL4 mouse lymphoma tumor model for vascular histology studies.
# Since in vitro blocking of DLL4/Notch pathway impaired the formation of lumen-like structure by ECs (FIG. 8a), it was investigated whether treatment with anti-DLL4 Mab caused similar defect in the tumor vasculature and affected efficient blood flow. […] Given the critical role of DLL4/Notch signaling in AV differentiation, both in embryos and early postnatal retinas, anti-DLL4 Mab could impact cell fate specification of tumor ECs and cause defective directional blood flow. […] Further studies utilizing vascular imaging techniques are needed to gain insights into the precise vascular defects.
# Jag1 = Jag1 (Homo sapiens, UniProt P78504); assay: ELISA binding to coated purified recombinant proteins; conditions: plates coated with recombinant protein 1 μg/ml
# Protocol: (§2) 96-well Nunc Maxisorp plates were coated with purified recombinant proteins as indicated (1 μg/ml). […] Bound antibodies were detected with anti-human antibody HRP conjugate using TMB as substrate and OD 450 nm absorbance measurement. Anti-HER2 and recombinant ErbB2-ECD were used as assay control (FIG. 11b).
# DLL4 = DLL4 (Homo sapiens, UniProt Q9NR61); assay: as above; conditions: plates coated with recombinant protein 1 μg/ml
# Protocol: as §2
# mouse DLL4 = mouse DLL4 (Mus musculus, UniProt Q9JI71); assay: as above; conditions: plates coated with recombinant protein 1 μg/ml
# Protocol: as §2
# Chain of mouse DLL4 (Q9JI71 27-686): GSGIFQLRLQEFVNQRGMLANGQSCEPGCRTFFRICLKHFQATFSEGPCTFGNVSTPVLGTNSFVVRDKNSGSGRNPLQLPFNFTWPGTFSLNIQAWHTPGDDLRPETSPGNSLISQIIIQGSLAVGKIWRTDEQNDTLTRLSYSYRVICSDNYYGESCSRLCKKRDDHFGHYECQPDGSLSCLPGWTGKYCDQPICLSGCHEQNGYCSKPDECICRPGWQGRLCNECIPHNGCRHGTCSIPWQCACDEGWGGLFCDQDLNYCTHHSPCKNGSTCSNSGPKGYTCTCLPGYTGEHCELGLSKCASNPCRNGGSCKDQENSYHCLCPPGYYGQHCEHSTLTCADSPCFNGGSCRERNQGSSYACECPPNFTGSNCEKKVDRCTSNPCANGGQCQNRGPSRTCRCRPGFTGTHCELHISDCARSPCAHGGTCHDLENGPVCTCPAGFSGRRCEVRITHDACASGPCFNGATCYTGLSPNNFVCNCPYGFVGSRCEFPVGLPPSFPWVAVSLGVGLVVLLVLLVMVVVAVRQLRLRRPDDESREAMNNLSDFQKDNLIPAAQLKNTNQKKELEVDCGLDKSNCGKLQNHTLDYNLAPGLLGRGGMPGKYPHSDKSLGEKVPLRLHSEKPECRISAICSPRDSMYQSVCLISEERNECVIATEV
substance,measurement,setting,value
"YW26.82: affinity matured anti-DLL4 monoclonal antibody; HVR-H1/H2/H3 SEQ ID NO:1, 8, 9; HVR-L1/L2/L3 SEQ ID NO:10, 11, 18","tumor growth, single agent",[1],inhibited tumor growth alone
same,tumor histology: EC density and viable tumor cell content,[2]; anti-DLL4 Mab treated Colo205 tumors,high EC density was associated with low viable tumor cell content
same,tumor volume,"[2]; treatment initiated at ≧250 mm^3, 10 mg/kg i.p. twice weekly, two weeks of treatment",remained static
same,endothelial cell density (anti-CD31) in tumor sections,EL4 mouse lymphoma tumor; EL4 tumors,dramatic increase in endothelial cell density
same,FITC-lectin labeling of tumor vessels (vascular perfusion),"EL4 mouse lymphoma tumor; systemic perfusion with FITC-lectin, EL4 tumor sections",marked reduction of lectin labeling of tumor vessels
same,binding by ELISA,Jag1,did not delectably bind
same,binding by ELISA,DLL4,bound
same,binding by ELISA,mouse DLL4,bound
